The source of these data is PubChem BioAssay AID1963953.

Active and inactive are the calls of the source.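 How the source made its calls: active means compounds cutting recovered intracellular Salmonella colonies below 0.7 of the DMSO level; inactive means the rest.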

The assay relates to HeLa infected S. Typhimurium SL1344, CFU, 6 h. Description: reduction of bacterial load in infected HeLa – cell-based, colony forming units, SL1344 (AID 1963953). The note with it: at 20 µM; stronger effect = lower value.
Regarding `CCC(C)(C)C(=O)C(=O)N1CCCC[C@H]1C(=O)N[C@H](CCc1ccc(OC)cc1)C(=O)N1[C@@H]2CC[C@H]1CC(Nc1nc(NCCc3ccccc3)nc(N3CCn4ncnc4C3)n1)C2` (stereo not given in full), the normalized CFU (DMSO = 1) was 0.47.

Turning to `CCC(C)(C)C(=O)C(=O)N1CCCC[C@H]1C(=O)N[C@H](CCc1ccc(OC)cc1)C(=O)N1[C@@H]2CC[C@H]1CC(NC(C)=O)C2` (stereo not given in full), the normalized CFU (DMSO = 1) is 0.77 (inactive).

Take `CC(=O)N1[C@@H]2CC[C@H]1CC(Nc1nc(NCCc3sc(N)nc3C)nc(N3CCn4ncnc4C3)n1)C2` (stereo not given in full): the normalized CFU (DMSO = 1) was 0.97 (inactive).

Take `CS(C)=O`: the normalized CFU (DMSO = 1) was 1 (inactive).

Consider `CCC(C)(C)C(=O)C(=O)N1CCCC[C@H]1C(=O)N[C@H](CCc1ccc(OC)cc1)C(=O)N1[C@@H]2CC[C@H]1CC(Nc1nc(NCCc3sc(N)nc3C)nc(N3CCn4ncnc4C3)n1)C2` (stereo not given in full), for which the normalized CFU (DMSO = 1) was 0.31.
